Source: patent publication US9561231B2 (AbbVie Inc., priority 2012, dated 2017)
Read-outs that look alike come from different tables or passages of the source.

Legend:
[1] = target: T1, second (BD2: amino acids E352-E168) bromodomain of BRD4 (Homo sapiens, UniProt O60885); test: TR-FRET bromodomain binding assay, BRD4 BD2; settings: Ki calculated from IC50, probe Kd and probe concentration, read-out: TR-FRET Binding Ki: BRD4 (BDII_E352-M457)
T1 construct: protocol
In short: (§1)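 TR-FRET probe competition, His-tagged bromodomain, Alexa647-labeled BET-inhibitor tracer. Ki from IC50 via probe Kd.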

[2] = test system: LPS induced IL-6 production; test: LPS (lipopolysaccharide) induced IL-6 production mouse assay; settings: 1 h before LPS 2.5 mg/kg i.p., serum IL-6 2 h after LPS, p<0.05
[3] = test system: breast cancer cell line MX-1; test: MX-1 cell line proliferation assay (3-day); format: cell-based; settings: Homo sapiens, MX1, MX-1 cells, Cell Titer Glo, read-out: Cellular proliferation: EC50
In short: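 MX-1 cells in RPMI/10% FBS, plated 5000/well overnight, then exposed to compound at final 3 to 0.0001 μM (3-fold series) for 3 days at 37° C. Cell Titer Glo luminescence normalized to DMSO-treated cells; EC50 from sigmoidal curve fit.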

[4] = target: T2, first (BD1: amino acids K57-E168) bromodomain of BRD4 (Homo sapiens, UniProt O60885); test: TR-FRET bromodomain binding assay, BRD4 BD1; settings: Ki calculated from IC50, probe Kd and probe concentration, read-out: TR-FRET Binding Ki: BRD4 (BDI_K57-E168)
T2 construct: His-tagged first (BD1: amino acids K57-E168)
In short: as §1

[5] = TR-FRET assay protocol (A-G, compound concentration range)
[6] = TR-FRET assay protocol (D, E or G) per compound

Structure (SMILES)	Ki [1, 5]	EC50 ([3]; 72 h incubation)	Ki [4, 5]	Ki [1, 6]	EC50 ([3]; 72 hours with compound)	Ki [4, 6]	Inhibition of LPS induced IL-6 production, % inhibition ([2]; 30 mg/kg oral)	Inhibition of LPS induced IL-6 production, % inhibition ([2]; 3 mg/kg oral)	Inhibition of LPS induced IL-6 production, % inhibition ([2]; 50 mg/kg oral)
Cn1cc(-c2cc(NS(C)(=O)=O)ccc2Oc2ccccc2Cl)ccc1=O [Example 235, N-[4-(2-chlorophenoxy)-3-(1-methyl-6-oxo-1,6-dihydropyridin-3-yl)phenyl]methanesulfonamide]	17 nM	238 nM	47.6 nM				58.7 @ 30 mg/kg %		
CCOc1cc(=O)n(C)cc1-c1cc(S(=O)(=O)CC)ccc1Oc1ccc(F)cc1F [Example 375, 5-[2-(2,4-difluorophenoxy)-5-(ethylsulfonyl)phenyl]-4-ethoxy-1-methylpyridin-2(1H)-one]				3.22 nM	40.2 nM	12.9 nM		84.4 @ 3 mg/kg %	
CCOc1cc(=O)n(C)cc1-c1cc(NS(=O)(=O)CC)ccc1Oc1ccc(OC(F)(F)F)cc1 [Example 387, N-{3-(4-ethoxy-1-methyl-6-oxo-1,6-dihydropyridin-3-yl)-4-[4-(trifluoromethoxy)phenoxy]phenyl}ethanesulfonamide]				7.87 nM	61.8 nM	69.1 nM		54.3 @ 3 mg/kg %	
CCNc1cc(=O)n(C)cc1-c1cc(NS(=O)(=O)CC)ccc1Oc1ccc(F)cc1F [Example 363, N-{4-(2,4-difluorophenoxy)-3-[4-(ethylamino)-1-methyl-6-oxo-1,6-dihydropyridin-3-yl]phenyl}ethanesulfonamide]	1.53 nM	29.6 nM	4.94 nM					42.7 @ 3 mg/kg %	
CCS(=O)(=O)Nc1ccc(Oc2ccc(F)cc2F)c(-c2cn(C)c(=O)cc2-n2cccn2)c1 [Example 346, N-{4-(2,4-difluorophenoxy)-3-[1-methyl-6-oxo-4-(1H-pyrazol-1-yl)-1,6-dihydropyridin-3-yl]phenyl}ethanesulfonamide]	13 nM	264 nM	41.5 nM					48.6 @ 3 mg/kg %	
COc1cc(=O)n(C)nc1-c1cc(NS(C)(=O)=O)ccc1Oc1ccccc1 [Example 22, N-[3-(4-methoxy-1-methyl-6-oxo-1,6-dihydropyridazin-3-yl)-4-phenoxyphenyl]methanesulfonamide]	51.9 nM	730 nM	258 nM						53.9 @ 50 mg/kg %
CCS(=O)(=O)Nc1ccc(Oc2ccc(F)cc2F)c(-c2cn(C)c(=O)cc2OC2CCC2)c1 [Example 367, N-{3-[4-(cyclobutyloxy)-1-methyl-6-oxo-1,6-dihydropyridin-3-yl]-4-(2,4-difluorophenoxy)phenyl}ethanesulfonamide]	0.528 nM	18.9 nM	2.11 nM					80.0 @ 3 mg/kg %	
CCOc1cc(=O)n(C)cc1-c1cc(S(=O)(=O)C2CC2)ccc1Oc1ccc(F)cc1F [Example 371, 5-[5-(cyclopropylsulfonyl)-2-(2,4-difluorophenoxy)phenyl]-4-ethoxy-1-methylpyridin-2(1H)-one]	2.29 nM	40.9 nM	8.73 nM					57.6 @ 3 mg/kg %	
Cc1cc(Oc2ccccc2)c(-c2ccc(=O)n(C)c2)cc1NS(C)(=O)=O [Example 257, N-[2-methyl-5-(1-methyl-6-oxo-1,6-dihydropyridin-3-yl)-4-phenoxyphenyl]methanesulfonamide]	31.6 nM	173 nM	18.1 nM				49.7 @ 30 mg/kg %		
CCCOc1cc(=O)n(C)cc1-c1cc(NS(=O)(=O)CC)ccc1Oc1ccc(F)cc1F [Example 292, N-[4-(2,4-difluorophenoxy)-3-(1-methyl-6-oxo-4-propoxy-1,6-dihydropyridin-3-yl)phenyl]ethanesulfonamide]	1.73 nM	45 nM	4.97 nM					58.0 @ 3 mg/kg %	
[2H]C([2H])(C)Oc1cc(=O)n(C)cc1-c1cc(NS(=O)(=O)CC)ccc1Oc1ccc(F)cc1F [Example 333, N-[4-(2,4-difluorophenoxy)-3-{4-[(1,1-^2H2)ethyloxy]-1-methyl-6-oxo-1,6-dihydropyridin-3-yl}phenyl]ethanesulfonamide]								63.6 @ 3 mg/kg %	
COc1ccccc1Oc1ccc(NS(C)(=O)=O)cc1-c1ccc(=O)n(C)c1 [Example 238, N-[4-(2-methoxyphenoxy)-3-(1-methyl-6-oxo-1,6-dihydropyridin-3-yl)phenyl]methanesulfonamide]	49.9 nM	643 nM	29.2 nM						
CCNS(=O)(=O)c1ccc(Oc2ccccc2)c(-c2ccc(=O)n(C)c2)c1 [Example 255, N-ethyl-3-(1-methyl-6-oxo-1,6-dihydropyridin-3-yl)-4-phenoxybenzenesulfonamide]	142 nM	> 3000 nM	635 nM						

Now from value to compound, other results behind:

Ki [1, 5]	EC50 ([3]; 72 h incubation)	Ki [4, 5]	Ki [1, 6]	EC50 ([3]; 72 hours with compound)	Ki [4, 6]	Structure (SMILES)	Inhibition of LPS induced IL-6 production, % inhibition ([2]; 30 mg/kg oral)	Inhibition of LPS induced IL-6 production, % inhibition ([2]; 3 mg/kg oral)	Inhibition of LPS induced IL-6 production, % inhibition ([2]; 50 mg/kg oral)
15.1 nM	239 nM	95.3 nM				CCS(=O)(=O)Nc1ccc(Oc2ccc(F)cc2F)c(-c2cn(C)c(=O)cc2OCC2(C)CC2(F)F)c1 (centres unmarked) [Example 335, N-[3-{4-[(2,2-difluoro-1-methylcyclopropyl)methoxy]-1-methyl-6-oxo-1,6-dihydropyridin-3-yl}-4-(2,4-difluorophenoxy)phenyl]ethanesulfonamide]		50.9 @ 3 mg/kg %	
27.1 nM	181 nM	34.6 nM				CCS(=O)(=O)Nc1ccc(Oc2ccc(F)cc2F)c(-c2ccc(=O)n(C)c2)c1 [Example 241, N-[4-(2,4-difluorophenoxy)-3-(1-methyl-6-oxo-1,6-dihydropyridin-3-yl)phenyl]ethanesulfonamide]		73.9 @ 3 mg/kg %	
110 nM	423 nM	19.2 nM				Cn1cc(-c2cc(NS(C)(=O)=O)ccc2Oc2ccc(Cl)cc2)ccc1=O [Example 233, N-[4-(4-chlorophenoxy)-3-(1-methyl-6-oxo-1,6-dihydropyridin-3-yl)phenyl]methanesulfonamide]	75.9 @ 30 mg/kg %		
4370 nM	9460 nM	4040 nM				Cc1ccc(S(=O)(=O)Nc2ccc(Oc3ccccc3)c(-c3ccc(=O)n(C)n3)c2)cc1 [Example 11, 4-methyl-N-[3-(1-methyl-6-oxo-1,6-dihydropyridazin-3-yl)-4-phenoxyphenyl]benzenesulfonamide]			
121 nM	304 nM	48.8 nM				Cc1cc(-c2cc(NS(C)(=O)=O)ccc2Oc2ccc(F)cc2F)c[nH]c1=O [Example 263, N-[4-(2,4-difluorophenoxy)-3-(5-methyl-6-oxo-1,6-dihydropyridin-3-yl)phenyl]methanesulfonamide]			
147 nM	1130 nM	233 nM				Cn1nc(-c2ccccc2Oc2ccccc2)c(-c2ccc(CCCO)cc2)cc1=O [Example 101, 5-[4-(3-hydroxypropyl)phenyl]-2-methyl-6-(2-phenoxyphenyl)pyridazin-3(2H)-one]			
1.67 nM	165 nM	21.4 nM				CCS(=O)(=O)Nc1ccc(Oc2ccc(OC3COC3)cc2F)c(-c2cn(C)c(=O)cc2OC2COC2)c1 [Example 336, N-{4-[2-fluoro-4-(oxetan-3-yloxy)phenoxy]-3-[1-methyl-4-(oxetan-3-yloxy)-6-oxo-1,6-dihydropyridin-3-yl]phenyl}ethanesulfonamide]			
2.3 nM	56.9 nM	4.41 nM				CCS(=O)(=O)Nc1ccc(Oc2ccc(F)cc2F)c(-c2cn(C)c(=O)cc2NCC2CC2)c1 [Example 353, N-[3-{4-[(cyclopropylmethyl)amino]-1-methyl-6-oxo-1,6-dihydropyridin-3-yl}-4-(2,4-difluorophenoxy)phenyl]ethanesulfonamide]			
			2.49 nM	70.7 nM	11.9 nM	CCS(=O)(=O)Nc1ccc(Oc2ccc(F)cc2F)c(-c2cn(C)c(=O)cc2-c2ccoc2)c1 [Example 393, N-{4-(2,4-difluorophenoxy)-3-[4-(furan-3-yl)-1-methyl-6-oxo-1,6-dihydropyridin-3-yl]phenyl}ethanesulfonamide]			
			2.06 nM	72.3 nM	6.92 nM	CCS(=O)(=O)Nc1ccc(Oc2ccc(F)cc2F)c(-c2cn(C)c(=O)cc2-c2ccc(C)s2)c1 [Example 407, N-{4-(2,4-difluorophenoxy)-3-[1-methyl-4-(5-methylthiophen-2-yl)-6-oxo-1,6-dihydropyridin-3-yl]phenyl}ethanesulfonamide]			
